# Measurements published in US10028973B2, “Using DNA methyltransferase inhibitors to treat calcific aorta valve disease” (Mayo Foundation for Medical Education and Research, priority 2014, dated 2018).
# Legend:
# [1] = tested on: hypercholesterolemic mice; assay: Chronic low-dose Decitabine treatment: progression of aortic valve calcification and stenosis (cusp separation distance, echocardiography); type: in vivo, mouse; settings: FIG. 8
# Experimental: FIG. 8 is a graph plotting cusp separation distance in control mice and in mice treated with DAC (0.1 mg/kg i.p., 2 days/week for 3 months). […] Echocardiographic evaluation of aortic valve function: Echocardiographic evaluation of aortic valve function is conducted as described elsewhere (Miller et al. 2009, supra; Hinton et al., Am J Physiol Heart Circ Physiol 294:[…]-2488, 2008; Barrick et al., Am J Physiol Heart Circ Physiol 297:[…]-75, 2009; and Miller et al., Circ Res 108:1392-1412, 2011). In brief, a Vevo 2200 small animal ultrasound unit is used to evaluate 1) cusp separation distance from M-mode images, 2) peak transvalvular blood velocity, and 3) color Doppler screening for evidence of aortic valve regurgitation. […] Short- and long-axis views of the left ventricle also are acquired to evaluate ventricular function (Berry et al., J Cardiovasc Magn Reson 11:27, 2009).
# [2] = tested on: pig aortic valve interstitial cells; assay: Calcium deposition in aortic valve interstitial cells in vitro; type: cell-based; settings: FIG. 7
# Text: FIG. 7 is a graph plotting the effects of DNMT inhibition with DAC calcium deposition in pig aortic valve interstitial cells in vitro.
# mouse aortic valves = assay: Acute Decitabine treatment of mice with established CAVD: gene expression in aortic valve tissue by quantitative real-time RT-PCR; type: in vivo; settings: ldlr−/−/apoB100/100 (LA) mice on Western diet 6 months, 0.5 or 1 mg/kg/day i.p. for 5 days
# Experimental: FIG. 5 is a pair of graphs plotting the effects of DNMT inhibition with decitabine (DAC) on expression of the pro-osteogenic signaling genes, Runx2 and osteopontin (SPP1), in mouse aortic valves in vivo. DAC was administered using daily intraperitoneal injections at the doses indicated (mg/kg/day) for 5 days, and gene expression was measured using quantitative real-time RT-PCR and mRNA isolated from mouse aortic valve tissue.
# FIG. 6 is a graph plotting the effects of DNMT inhibition with DAC on expression of the anti-osteogenic gene, FABP4 (a PPARγ target). DAC was administered using daily intraperitoneal injections at the doses indicated (mg/kg/day) for 5 days, and gene expression was measured using quantitative real-time RT-PCR and mRNA isolated from mouse aortic valve tissue.
# To determine whether acute DNA methyltransferase inhibition promotes anti-calcific gene expression patterns in mice with established calcific aortic valve disease, ldlr^−/−/apoB^100/100 (LA) mice were placed on a Western diet for 6 months (which produces mild to moderate valvular dysfunction), and treated with vehicle or Decitabine (5-aza-2′-deoxycytidine; “DAC”) for 5 days (0.5 or 1 mg/kg/day, i.p.). Changes in cardiac and aortic valve function at 3 and 6 months are evaluated. […] The second group is used for semi-quantitative histological/immunohistochemical evaluation of aortic valve (n=10). The third group is used for genome-wide evaluation of gene expression using microarrays (n=20), and the fourth group is used for high-resolution μCT scanning for quantitation of calcium burden in aortic valve and root (n=15).
# Quantitative Real-Time RT-PCR: Aortic valve cusps are dissected, and tissue is processed and stored using commercially available lysis buffer with β-mercaptoethanol (Miller et al., Am J Physiol Heart Circ Physiol 298:H1600-1607, 2010). Quantitative real-time RT-PCR studies confirming array-detected changes in gene expression are performed on a StepOne Plus instrument (Applied Biosystems).
compound,measurement,setting,value
"Nc1ncn([C@H]2C[C@H](O)[C@@H](CO)O2)c(=O)n1 [Decitabine, 5-Aza-2′-deoxycytidine]",progression of aortic valve stenosis (cusp separation distance),"[1]; 0.1 mg/kg i.p., 2 days/week for 3 months, larger cusp separation distance = improved valve function",slowed progression of aortic valve stenosis
same,progression of aortic valve calcification and stenosis,"[1]; low-dose, hypercholesterolemic mice in vivo",successfully slowed progression
same,calcification in aortic valve interstitial cells,[2],reduced calcification
same,Sp7 expression,mouse aortic valves,dose-dependent reductions
same,Runx2 expression,mouse aortic valves; FIG. 5,dose-dependent reductions
same,"PPARγ target gene expression (e.g., FABP4)",mouse aortic valves; FIG. 6,increased PPARγ target gene expression
